Results: publication PMC8002983, “Mammalian Arginase Inhibitory Activity of Methanolic Extracts and Isolated Compounds from Cyperus Species” (Molecules, 2021)

Test system: aortic rings from adjuvant induced-arthritis rats
Experiment: ex vivo acetylcholine-induced relaxation in isolated aortic rings from arthritic rats
Parameters: species or system rat
Conditions: day 33 post-immunization, phenylephrine 10^−6 mol/L preconstriction, nor-NOHA 10^−4 mol/L, extract 2.6 10^−3 mg/mL
Description: This part of the experiment was performed on 15 male Lewis rats (6 weeks old), purchased from JanvierLabs (Le Genest Saint Isle, France). The experimental procedures were approved by the local ethics committee for animal experimentation No. 2015/001-CD/5PR of Franche-Comté University (Besançon, France) and complied with the “Animal Research: Reporting In Vivo Experiments” (ARRIVE) guidelines.
Arthritis was induced by a single intradermal injection to the tail of 120 μL of 10 mg·ml^−1 heat-killed Mycobacterium butyricum suspended in Freund’s incomplete adjuvant, as described previously. Non-arthritic age-matched rats were used as controls and received saline at the base of the tail.
At 33 days post-immunization, corresponding to the acute phase of arthritis, the rats were anesthetized using sodium pentobarbital 60 mg/kg (Ceva Santé Animale, France). The descending thoracic aorta was excised and carefully cleaned for vascular study as previously described. […] To assess the effect of arginase inhibitors, experiments were repeated in the presence of nor-NOHA (10^−4 M) and C. thunbergii extract (at EC50 obtained by in vitro test), respectively.

For `N=C(NO)NCC[C@H](N)C(=O)O` [nor-NOHA, Nω-hydroxy-nor-L-arginine], the “effect on depressed Ach-induced endothelium-dependent relaxation (endothelial dysfunction)” value was “relaxation was higher”.

Target: T1, purified liver bovine arginase (b-ARGI) (Bos taurus, UniProt Q2KJ64)
T1 construct: purified liver bovine arginase 1, which was purchased from MP Biomedicals; purchased MP Biomedicals (Illkirch-Graffenstaden, France); host or cells: bovine liver (tissue-purified)
T1 sequence (Q2KJ64 1-322): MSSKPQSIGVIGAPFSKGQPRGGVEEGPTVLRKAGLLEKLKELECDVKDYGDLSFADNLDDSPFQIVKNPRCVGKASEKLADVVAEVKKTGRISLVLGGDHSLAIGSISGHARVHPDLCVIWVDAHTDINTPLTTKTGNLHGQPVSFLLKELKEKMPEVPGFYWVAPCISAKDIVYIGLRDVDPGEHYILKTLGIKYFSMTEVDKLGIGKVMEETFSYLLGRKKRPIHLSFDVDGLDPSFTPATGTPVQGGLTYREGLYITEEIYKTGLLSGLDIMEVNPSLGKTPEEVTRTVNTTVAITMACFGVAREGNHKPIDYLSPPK
Experiment: not given
Parameters: method as in PMID 27776374, PMID 28837342
Conditions: mammalian arginase; read-out: Arginase inhibition IC50 of natural inhibitor piceatannol; cited from earlier work

For `Oc1cc(O)cc(/C=C/c2ccc(O)c(O)c2)c1` [piceatannol], the IC50 is listed as 12.6 µM.

Target: T1, purified liver bovine arginase (b-ARGI)
Experiment: in vitro arginase inhibitory assay (colorimetric urea detection)
Type: biochemical
Conditions: means ± SEM, three distinct experiments in triplicate, read-out: Arginase Inhibition, IC50
Description: The amount of urea produced by the hydrolysis of L-arginine by arginase (purified liver bovine arginase (b-ARGI)) can be detected using a color reactant (α-isonitrosopropiophenone) followed by a colorimetric assay, as described below. In each well of a 96-well microplate, the solutions were added in the following order: (1) buffer containing Tris-HCl (50 mM, pH 7.5) and 0.1% of bovine serum albumin (TBSA buffer) (10 μL), with or without (control) arginase (0.025 U/μL); (2) Tris-HCl solution (50 mM, pH 7.5) containing 10 mM MnCl2 as a cofactor (30 μL); (3) a solution containing an inhibitor or its solvent (as a control) (10 μL); (4) a solution of L-arginine (pH 9.7, 0.05 M) (20 μL). The microplate was incubated for 60 min in a 37 °C water bath after covering with a plastic sealing film. The addition of 120 μL of H2SO4/H3PO4/H2O (1:3:7) quenched the reaction. The microplate was left on ice for 5 min. Thereafter, 10 μL of α-isonitrosopropiophenone (5% in absolute ethanol (EtOH)) was added, and the microplate was heated in an oven at 100 °C for 45 min, after covering with an aluminum sealing film. As the colored product is photosensitive, the microplate was kept in the dark until reading. After 5 min of centrifugation and cooling for another 10 min, the microplate was shaken for 2 min and the absorbance was read at 550 nm and 25 °C using a spectrophotometer (Synergy HT BioTeck). The level of arginase activity was expressed as relative to the “100% arginase activity”. The experiment was repeated three times with each microplate under similar experimental conditions (e.g., various inhibitor concentrations.)
The percentage of arginase inhibitory activity and IC50 values was evaluated as previously described. A stock solution (70 mM) was prepared in DMSO and stored at −26 °C for each compound. These stock solutions were extemporaneously and successively diluted in ultrapure H2O to afford the following concentrations: 7000, 2100, 700, 210, 70, 21, 7, 2.1, and 0.7 μM, corresponding to final concentrations in the wells of 1000, 300, 100, 30, 10, 3, 1, 0.3, 0.1 μM, respectively. For a first screening, compounds were tested at final concentrations of 10 and 100 μM. Each solution was incubated with arginase for 1 h, as described above. The percentage of arginase inhibition was calculated by conversion of the resulting absorbance (relative to the absorbance of controls with only solvent (“100% arginase activity”)) and plotted on a semilogarithmic scale. The IC50 values were estimated by nonlinear sigmoidal curve-fitting by using Prism (GraphPad Software, version 5.0.3).

`Oc1cc(O)cc(-c2c(-c3ccc(O)c(O)c3)oc3cc4oc(-c5ccc(O)c(O)c5)c(-c5cc(O)cc(O)c5)c4c(/C=C/c4ccccc4)c23)c1` [Compound 6, trans-cyperusphenol A] and `Oc1ccc(/C=C/c2cc(O)cc3c2[C@H](c2cc(O)cc(O)c2)[C@@H](c2ccc(O)c(O)c2)O3)cc1` (stereo in doubt) [Compound 4, trans-scirpusin A] are within error of each other in IC50: 19.4 ± 1.3 µM for the first, 17.6 ± 2.2 µM for the second.

First: COc1cc2c3c(c1)O[C@H](C)CC3(C)c1cc3oc(OC)ccc-3c1O2 (stereo partly drawn) [Compound 2, thunbergin B]
Second: COc1cc2c3c(cc(O)cc3c1)C(C)(C)c1c-2ccc(OC)c1O [Compound 1, 4,6-dihydroxy-12-dimethyl-3,10-dimethoxybenzophenanthrene]
The IC50 of the first is 2.6-fold higher: 74.1 ± 3.7 µM for the first, 28.8 ± 2.5 µM for the second. The second is the more potent here.

`O=C1/C(=C/c2ccc(O)c(O)c2)Oc2cc(O)cc(O)c21` [Compound 5, aureusidin] and `O=c1cc(-c2ccc(O)c(O)c2)oc2cc(O)cc(O)c12` [Compound 7, luteolin] are within error of each other in IC50: 57.1 ± 2.3 µM for the first, 60.6 ± 3.1 µM for the second.

`Oc1ccc(/C=C/c2cc(O)cc(O)c2)cc1` [Compound 3, trans-resveratrol] gave an IC50 of 105 ± 4.1 µM.
